Measured values from patent publication US20240116985A1, “STAPLED PEPTIDES AND METHODS THEREOF” (priority 2020, published 2024).
Values after ≈ are worked out from the molar mass of the structure shown. Read-outs that look alike come from different tables or passages of the source.

What was measured:
Solubility in PBS = format: physicochemical
How it was run: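 Read-out is the HPLC peak area of the supernatant from ultracentrifuged PBS solution, scaled against a 50 μM peptide DMSO injection; value reported as [(PBS area)/(DMSO area)]*50 uM.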

[1] = target: T1, full-length beta-Catenin (Uniprot ID P35222) (Homo sapiens, UniProt P35222); assay: Fluorescence polarization IC50 (beta-catenin / 5FAM-TCF4 10-53 competition); format: binding; settings: fluorescence polarization
T1 construct: 10 nM full-length beta-Catenin (Uniprot ID P35222)
T1 sequence (P35222 1-781): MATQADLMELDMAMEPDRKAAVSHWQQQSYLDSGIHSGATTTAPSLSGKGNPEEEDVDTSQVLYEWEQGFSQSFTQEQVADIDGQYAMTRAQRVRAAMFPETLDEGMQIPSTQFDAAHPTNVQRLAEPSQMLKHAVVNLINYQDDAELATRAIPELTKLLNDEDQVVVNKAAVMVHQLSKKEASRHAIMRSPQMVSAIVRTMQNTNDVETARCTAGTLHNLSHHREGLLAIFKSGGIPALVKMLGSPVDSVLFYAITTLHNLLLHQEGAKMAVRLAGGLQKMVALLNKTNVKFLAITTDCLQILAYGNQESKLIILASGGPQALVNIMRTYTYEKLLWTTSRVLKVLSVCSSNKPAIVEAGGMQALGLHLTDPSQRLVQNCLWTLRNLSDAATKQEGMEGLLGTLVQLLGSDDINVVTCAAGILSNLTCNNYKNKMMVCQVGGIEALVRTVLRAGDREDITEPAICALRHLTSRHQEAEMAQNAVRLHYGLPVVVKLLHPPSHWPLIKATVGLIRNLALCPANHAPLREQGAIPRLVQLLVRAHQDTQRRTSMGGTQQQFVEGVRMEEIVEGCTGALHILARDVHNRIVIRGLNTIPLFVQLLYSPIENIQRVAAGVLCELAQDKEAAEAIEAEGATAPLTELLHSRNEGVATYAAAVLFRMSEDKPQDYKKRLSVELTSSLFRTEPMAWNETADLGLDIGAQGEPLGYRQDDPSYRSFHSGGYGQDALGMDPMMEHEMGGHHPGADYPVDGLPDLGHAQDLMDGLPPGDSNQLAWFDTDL

[2] = target: T2, beta-catenin/TCF4 engagement (Homo sapiens, UniProt P35222); assay: Nano-BRET target engagement assay (B-cat-Halo & TCF4-Luc in HEK293 cells); format: cell-based; settings: absolute IC50; read-out: NanoBRET Abs IC50
T2 construct: expressed in transfected cells; host or cells: HEK293
T2 sequence (P35222 1-781): T1 sequence (P35222 1-781)

Row | SMILES | Solubility (Solubility in PBS; Solubility (uM)) | IC50 ([1]; read-out: beta-Catenin FP IC50) | IC50 [2] | Solubility (Solubility in PBS) | IC50 ([1]; beta-catenin, read-out: FP EC50)
1 | CC(=O)N1CCC[C@]12CC=CCCCC1(CCCC=CCCCOC(=O)N3CC[C@@](C(=O)N[C@@H](Cc4ccccc4Cl)C(=O)N[C@@H](Cc4csc5ccccc45)C(=O)N[C@@H](CO)C(N)=O)(C3)NC(=O)[C@H]([C@@H](C)O)NC(=O)[C@H](Cc3ccccc3)NC(=O)[C@H](C)NC(=O)[C@H](CC(C)C)NC(=O)[C@H](CC(=O)O)NC(=O)[C@H](CC(=O)O)NC1=O)NC(=O)[C@H](CC1CCCCC1)NC(=O)[C@H](CC(=O)O)NC2=O (stereo partly drawn) [I-1150, Ac-PL3-Asp-Cha-B5-Asp-Asp-Leu-Ala-Phe-Thr-PyrS2-2C1F-BztA-Ser-NH2] | 18 µM (≈ 35.3 µg/mL) | 12 nM | 21400 nM |  | 
2 | CC(=O)N1CCC[C@]12CC=CCCCC1(CCCC=CCCCOC(=O)N3CC[C@@](C(=O)N[C@@H](Cc4ccccc4Cl)C(=O)N[C@@H](Cc4csc5ccccc45)C(=O)N[C@@H](CO)C(N)=O)(C3)NC(=O)[C@H]([C@@H](C)O)NC(=O)[C@H](Cc3ccccc3)NC(=O)[C@H](CC(C)C)NC(=O)[C@H](C)NC(=O)[C@H](CC(=O)O)NC(=O)[C@H](CC(=O)O)NC1=O)NC(=O)[C@H](CC1CCCCC1)NC(=O)[C@H](CC(=O)O)NC2=O (stereo partly drawn) [I-1151, Ac-PL3-Asp-Cha-B5-Asp-Asp-Ala-Leu-Phe-Thr-PyrS2-2C1F-BztA-Ser-NH2] |  | 30 nM | 25300 nM | 10 µM (≈ 19.6 µg/mL) | 
3 | CC(=O)N1CCC[C@]12CC=CCCCC1(CCCC=CCCCOC(=O)N3CC[C@@](C(=O)N[C@@H](Cc4ccccc4Cl)C(=O)N[C@@H](Cc4csc5ccccc45)C(=O)N[C@@H](CO)C(N)=O)(C3)NC(=O)[C@H]([C@@H](C)O)NC(=O)[C@H](Cc3ccccc3)NC(=O)[C@H](CC(C)C)NC(=O)[C@H](CC(C)C)NC(=O)[C@H](CC(=O)O)NC(=O)[C@H](CC(=O)O)NC1=O)NC(=O)[C@H](CC1CCCCC1)NC(=O)[C@H](CC(=O)O)NC2=O (stereo partly drawn) [I-1152, Ac-PL3-Asp-Cha-B5-Asp-Asp-Leu-Leu-Phe-Thr-PyrS2-2C1F-BztA-Ser-NH2] |  | 65 nM | 14200 nM | 10 µM (≈ 20 µg/mL) | 
4 | CC(=O)N1CCC[C@]12CC=CCCCC1(CCCC=CCCCOC(=O)N3CC[C@@](C(=O)N[C@@H](Cc4ccccc4Cl)C(=O)N[C@@H](Cc4csc5ccccc45)C(=O)N[C@@H](CO)C(N)=O)(C3)NC(=O)[C@H]([C@@H](C)O)NC(=O)[C@H](Cc3ccccc3)NC(=O)[C@H](CC(C)C)NC(=O)[C@H](C)NC(=O)[C@H](CC(=O)O)NC(=O)[C@H](CC(=O)O)NC1=O)NC(=O)[C@H](Cc1ccccc1)NC(=O)[C@H](CC(=O)O)NC2=O (stereo partly drawn) [I-1157, Ac-PL3-Asp-Phe-B5-Asp-Asp-Ala-Leu-Phe-Thr-PyrS2-2C1F-BztA-Ser-NH2] | 15 µM (≈ 29.3 µg/mL) | 36 nM | > 20000 nM |  | 
5 | CC(=O)N1CCC[C@]12CC=CCCCC1(CCCC=CCCCOC(=O)N3CC[C@@](C(=O)N[C@@H](Cc4ccsc4)C(=O)N[C@@H](Cc4csc5ccccc45)C(=O)N[C@@H](CCC(N)=O)C(N)=O)(C3)NC(=O)[C@H]([C@@H](C)O)NC(=O)[C@H](Cc3ccccc3)NC(=O)[C@H](C)NC(=O)[C@H](C)NC(=O)[C@H]([C@@H](C)O)NC(=O)[C@H](CC(=O)O)NC1=O)NC(=O)[C@H](CC(C)(C)C)NC(=O)[C@H](CC(=O)O)NC2=O (stereo partly drawn) [I-1166, Ac-PL3-Asp-Npg-B5-Asp-Thr-Ala-Ala-Phe-Thr-PyrS2-3Thi-BztA-Gln-NH2] | 14 µM (≈ 26.5 µg/mL) | 14 nM | 14600 nM |  | 
6 | CC(=O)N1CCC[C@]12CC=CCCCC1(CCCC=CCCCOC(=O)N3CC[C@@](C(=O)N[C@@H](Cc4ccsc4)C(=O)N[C@@H](Cc4csc5ccccc45)C(=O)N[C@@H](CCC(N)=O)C(N)=O)(C3)NC(=O)[C@H](CC(C)C)NC(=O)[C@H](Cc3ccccc3)NC(=O)[C@H](C)NC(=O)[C@H](C)NC(=O)[C@H]([C@@H](C)O)NC(=O)[C@H](CC(=O)O)NC1=O)NC(=O)[C@H](CC(C)(C)C)NC(=O)[C@H](CC(=O)O)NC2=O (stereo partly drawn) [I-1167, Ac-PL3-Asp-Npg-B5-Asp-Thr-Ala-Ala-Phe-Leu-PyrS2-3Thi-BztA-Gln-NH2] |  | 34 nM | 11700 nM | 10 µM (≈ 19 µg/mL) | 
7 | CC(=O)N1CCC[C@]12CC=CCCCC1(CCCC=CCCCOC(=O)N3CC[C@@](C(=O)N[C@@H](Cc4ccccc4Cl)C(=O)N[C@@H](Cc4csc5ccccc45)C(=O)N[C@@H](CCC(N)=O)C(N)=O)(C3)NC(=O)[C@H]([C@@H](C)O)NC(=O)[C@H](Cc3ccccc3)NC(=O)[C@H](C)NC(=O)[C@H](C)NC(=O)[C@H]([C@@H](C)O)NC(=O)[C@H](CC(=O)O)NC1=O)NC(=O)[C@H](CC(C)(C)C)NC(=O)[C@H](CC(=O)O)NC2=O (stereo partly drawn) [I-1168, Ac-PL3-Asp-Npg-B5-Asp-Thr-Ala-Ala-Phe-Thr-PyrS2-2C1F-BztA-Gln-NH2] |  | 25 nM | 31400 nM | 10 µM (≈ 19.2 µg/mL) | 
8 | CC(=O)N1CCC[C@]12CC=CCCCC1(CCCC=CCCCOC(=O)N3CC[C@@](C(=O)N[C@@H](Cc4ccsc4)C(=O)N[C@@H](Cc4csc5ccccc45)C(=O)N[C@@H](CO)C(N)=O)(C3)NC(=O)[C@H]([C@@H](C)O)NC(=O)[C@H](Cc3ccccc3)NC(=O)[C@H](C)NC(=O)[C@H](C)NC(=O)[C@H]([C@@H](C)O)NC(=O)[C@H](CC(=O)O)NC1=O)NC(=O)[C@H](CC(C)(C)C)NC(=O)[C@H](CC(=O)O)NC2=O (stereo partly drawn) [I-1170, Ac-PL3-Asp-Npg-B5-Asp-Thr-Ala-Ala-Phe-Thr-PyrS2-3Thi-BztA-Ser-NH2] |  | 15 nM | 13500 nM | 10 µM (≈ 18.5 µg/mL) | 
9 | CC(=O)N1CCC[C@]12CC=CCCCC1(CCCC=CCCCOC(=O)N3CC[C@@](C(=O)N[C@@H](Cc4ccsc4)C(=O)N[C@@H](Cc4csc5ccccc45)C(=O)N[C@@H](CCC(N)=O)C(N)=O)(C3)NC(=O)[C@H]([C@@H](C)O)NC(=O)[C@H](Cc3ccccc3)NC(=O)[C@H](C)NC(=O)[C@H](C)NC(=O)[C@H]([C@@H](C)O)NC(=O)[C@H](CC(=O)O)NC1=O)NC(=O)[C@H](CC1CCCCC1)NC(=O)[C@H](CC(=O)O)NC2=O (stereo partly drawn) [I-1173, Ac-PL3-Asp-Cha-B5-Asp-Thr-Ala-Ala-Phe-Thr-PyrS2-3Thi-BztA-Gln-NH2] |  | 12 nM | 17200 nM | 10 µM (≈ 19.2 µg/mL) | 
10 | CC(=O)N1CCC[C@]12CC=CCCCC1(CCCC=CCCCOC(=O)N3CC[C@@](C(=O)N[C@@H](Cc4ccccc4Cl)C(=O)N[C@@H](Cc4csc5ccccc45)C(=O)N[C@@H](CCC(N)=O)C(N)=O)(C3)NC(=O)[C@H]([C@@H](C)O)NC(=O)[C@H](Cc3ccccc3)NC(=O)[C@H](C)NC(=O)[C@H](C)NC(=O)[C@H]([C@@H](C)O)NC(=O)[C@H](CC(=O)O)NC1=O)NC(=O)[C@H](CC1CCCCC1)NC(=O)[C@H](CC(=O)O)NC2=O (stereo partly drawn) [I-1175, Ac-PL3-Asp-Cha-B5-Asp-Thr-Ala-Ala-Phe-Thr-PyrS2-2C1F-BztA-Gln-NH2] |  | 24 nM | 27300 nM | 10 µM (≈ 19.5 µg/mL) | 
11 | CC(=O)N1CCC[C@]12CC=CCCCC1(CCCC=CCCCOC(=O)N3CC[C@@](C(=O)N[C@@H](Cc4ccsc4)C(=O)N[C@@H](Cc4csc5ccccc45)C(=O)N[C@@H](CCC(N)=O)C(N)=O)(C3)NC(=O)[C@H](CC(C)C)NC(=O)[C@H](Cc3ccccc3)NC(=O)[C@H](C)NC(=O)C(C)(C)NC(=O)[C@H](CC(=O)O)NC(=O)[C@H](CC(=O)O)NC1=O)NC(=O)[C@H](CC(C)(C)C)NC(=O)[C@H](CC(=O)O)NC2=O (stereo partly drawn) [I-1177, Ac-PL3-Asp-Npg-B5-Asp-Asp-Aib-Ala-Phe-Leu-PyrS2-3Thi-BztA-Gln-NH2] | 35 µM (≈ 67.6 µg/mL) | 25 nM | 4300 nM |  | 
12 | CC(=O)N1CCC[C@H]1C(=O)N[C@@H](CC(=O)O)C(=O)N[C@@H](CC(C)(C)C)C(=O)N[C@]1(C)CCCC=CCCCOC(=O)N2CC[C@@](C(=O)N[C@@H](Cc3ccsc3)C(=O)N[C@@H](Cc3csc4ccccc34)C(=O)N[C@@H](CCC(N)=O)C(N)=O)(C2)NC(=O)[C@H](CC(C)C)NC(=O)[C@H](Cc2ccccc2)NC(=O)[C@H](C)NC(=O)[C@H](C)NC(=O)[C@H](CC(=O)O)NC(=O)[C@H](CC(=O)O)NC1=O [I-1181, Ac-Pro-Asp-Npg-R5-Asp-Asp-Ala-Ala-Phe-Leu-PyrS2-3Thi-BztA-Gln-NH2] |  | 297 nM | > 20000 nM | 50 µM (≈ 92.6 µg/mL) | 226 nM
